According to patent US12396459B2, “Synergistically effective herbicide composition comprising pyridate and at least one defined 4-HPPD inhibitor” (BELCHIM CROP PROTECTION NV, priority 2018, dated 2025):

Assays:
Type in all cases: in vivo
Rumex obtusifolius = test: Field trial post-emergence in maize: RUMOB
Description: (§1) Herbicidal activity of herbicide compositions according to the first aspect of the present invention with regard to different types of unwanted vegetation was determined during trials performed on test fields (field trials). Individual compositions comprising pyridate and individual compositions comprising a defined 4-HPPD inhibitor are compared with a herbicide composition according to the invention comprising both pyridate and a defined 4-HPPD inhibitor. The expected activity of the combination of the active compounds pyridate and a defined 4-HPPD inhibitor is calculated according to above mentioned calculation method by Colby, in order to evaluate a synergistic effect between pyridate and a defined 4-HPPD inhibitor.
(§2) Herbicidal activity was determined by applying herbicide compositions on emerged unwanted vegetation on fields where maize was cultivated. Pyridate and a defined 4-HPPD inhibitor were applied as a tank mixture by mixing these active compounds prior to use in a spray tank. The corresponding mixture was in the form of a spray liquor. Besides, spray liquors of individual compositions comprising pyridate and of individual compositions comprising a defined 4-HPPD inhibitor were used. Test plants of unwanted vegetation with a growth stage corresponding to BBCH 10-18 (according to the extended BBCH-scale) were sprayed with the active compound preparations such that particular desired amounts of active compounds are applied per unit area. Spray liquor was diluted with water to arrive at an application volume of 50 to 450 L/ha. At a specified number of days after application (DAA), the degree of damage to the unwanted vegetation is rated in % of plants of unwanted vegetation that were killed, which was assessed by visually controlling the plants.
(§3) Example 1 concerns a herbicide composition comprising a combination of pyridate and mesotrione, which was applied post-emergence on unwanted vegetation on a field where maize was cultivated, according to the test conditions mentioned above.

Veronica persica = test: Field trial post-emergence in maize: VERPE; conditions: for herbicidal effect (h.e.): g a.c./ha: PYR 300, MES 100, PYR + MES 300 + 90
Description: as §1, §2

Convolvulus arvensis = test: Field trial post-emergence in maize: CONAR
Description: as §1, §2, §3

Portulaca oleracea = test: Field trial post-emergence in maize: POROL; conditions: # = 1, g a.c./ha: PYR 300, MES 100, PYR + MES 300 + 90
Description: as §1, §2

[1] = system: unwanted vegetation (UVEG); test: Field trials Examples 1-5 (incl. Table 1), post-emergence on unwanted vegetation in maize; conditions: 14-20 DAA
Description: as §1, §2

Xanthium spinosum = test: Field trial post-emergence in maize: XANSP; conditions: 7-14 DAA; # = 3; g a.c./ha: PYR 300, MES 100, PYR + MES 300 + 90
Description: as §1
Herbicidal activity was determined by applying herbicide compositions on emerged unwanted vegetation on fields where maize was cultivated. Pyridate and a defined 4-HPPD inhibitor were applied as a tank mixture by mixing these active compounds prior to use in a spray tank. The corresponding mixture was in the form of a spray liquor. […] At a specified number of days after application (DAA), the degree of damage to the unwanted vegetation is rated in % of plants of unwanted vegetation that were killed, which was assessed by visually controlling the plants.

Kickxia elatine = test: Field trial post-emergence in maize: KICEL
Description: as §1, §2, §3

Polygonum aviculare = test: Field trial post-emergence in maize: POLAV
Description: as §1, §2, §3

[2] = system: Brassica rapa Canola cultivars; test: Field trial post-emergence in maize: BRSRC; conditions: 13-14 DAA, # = 1
Description: as §1, §2

Persicaria maculosa = test: Field trial post-emergence in maize: POLPE; conditions: for herbicidal effect (h.e.): g a.c./ha: PYR 300, MES 100, PYR + MES 300 + 90
Description: as §1, §2

Papaver rhoeas = test: Field trial post-emergence in maize: PAPRH; conditions: # = 1, g a.c./ha: PYR 300, MES 100, PYR + MES 300 + 90
Description: as §1, §2

Fallopia convolvulus = test: Field trial post-emergence in maize: POLCO
Description: as §1, §2

Lamium purpureum = test: Field trial post-emergence in maize: LAMPU
Description: as §1, §2, §3

Brassica napus = test: Field trial post-emergence in maize: BRSNN; conditions: # = 1, g a.c./ha: PYR 300, MES 100, PYR + MES 300 + 90
Description: as §1, §2

Setaria verticillata = test: Field trial post-emergence in maize: SETVE
Description: as §1, §2, §3

Viola arvensis = test: Field trial post-emergence in maize: VIOAR
Description: as §1, §2, §3

SMILES: CCCCCCCCSC(=O)Oc1cc(Cl)nnc1-c1ccccc1 [PYR, (6-chloro-3-phenylpyridazin-4-yl) octylsulfanylformate]
- PYR h.e. (Rumex obtusifolius; RUMOB 14-20 DAA 300 g a.c./ha): 20%
- PYR h.e. (Rumex obtusifolius; RUMOB 14-20 DAA 600 g a.c./ha): 30%
- PYR h.e. (Rumex obtusifolius; RUMOB 14-20 DAA 900 g a.c./ha): 55%
- herbicidal effect (h.e.) (Veronica persica; 7-14 DAA, # = 4): 58%
- herbicidal effect (h.e.) (Veronica persica; 31-48 DAA, # = 5): 44%
- PYR h.e. (Veronica persica; VERPE 14-20 DAA 300 g a.c./ha): 0%
- PYR h.e. (Veronica persica; VERPE 14-20 DAA 600 g a.c./ha): 20%
- PYR h.e. (Veronica persica; VERPE 14-20 DAA 900 g a.c./ha): 40%
- PYR h.e. (Veronica persica; VERPE 24-31 DAA 300 g a.c./ha): 10%
- PYR h.e. (Veronica persica; VERPE 24-31 DAA 600 g a.c./ha): 0%
- PYR h.e. (Veronica persica; VERPE 24-31 DAA 900 g a.c./ha): 0%
- PYR h.e. (Convolvulus arvensis; CONAR 14-20 DAA 300 g a.c./ha): 35%
- PYR h.e. (Convolvulus arvensis; CONAR 14-20 DAA 600 g a.c./ha): 40%
- PYR h.e. (Convolvulus arvensis; CONAR 14-20 DAA 900 g a.c./ha): 45%
- PYR h.e. (Convolvulus arvensis; CONAR 24-31 DAA 600 g a.c./ha): 48%
- PYR h.e. (Convolvulus arvensis; CONAR 24-31 DAA 900 g a.c./ha): 45%
- herbicidal effect (h.e.) (Portulaca oleracea; 7-14 DAA): 30%
- herbicidal effect (h.e.) (Portulaca oleracea; 18-28 DAA): 11%
- PYR h.e. (%) ([1]; VIOAR (Viola arvensis), # = 3, first VIOAR block (r259-264), PYR 900 g a.c./ha): 50%
- PYR h.e. (%) ([1]; VIOAR (Viola arvensis), # = 3, second VIOAR block (r265-272), PYR 300 g a.c./ha): 27%
- PYR h.e. (%) ([1]; VIOAR, # = 3, second VIOAR block (r265-272), PYR 600 g a.c./ha): 34%
- PYR h.e. (%) ([1]; VIOAR, # = 3, second VIOAR block (r265-272), PYR 900 g a.c./ha): 47%
- herbicidal effect (h.e.) (Xanthium spinosum): 5%
- PYR h.e. (Kickxia elatine; KICEL 14-20 DAA 300 g a.c./ha): 0%
- PYR h.e. (Kickxia elatine; KICEL 14-20 DAA 600 g a.c./ha): 0%
- PYR h.e. (Kickxia elatine; KICEL 14-20 DAA 900 g a.c./ha): 0%
- PYR h.e. (Kickxia elatine; KICEL 24-31 DAA 300 g a.c./ha): 0%
- PYR h.e. (Kickxia elatine; KICEL 24-31 DAA 600 g a.c./ha): 0%
- PYR h.e. (Kickxia elatine; KICEL 24-31 DAA 900 g a.c./ha): 0%
- PYR h.e. (Polygonum aviculare; POLAV 14-20 DAA 300 g a.c./ha): 18%
- PYR h.e. (Polygonum aviculare; POLAV 24-31 DAA 300 g a.c./ha): 17%
- herbicidal effect (h.e.) ([2]; g a.c./ha: PYR 450, MES 144, PYR + MES 450 + 144): 48%
- herbicidal effect (h.e.) ([2]; g a.c./ha: PYR 450, TOP 12.4, PYR + TOP 450 + 12.4): 48%
- herbicidal effect (h.e.) (Persicaria maculosa; 7-14 DAA, # = 3): 42%
- herbicidal effect (h.e.) (Persicaria maculosa; 31-48 DAA, # = 4): 32%
- PYR h.e. (Persicaria maculosa; POLPE 14-20 DAA 300 g a.c./ha): 15%
- PYR h.e. (Persicaria maculosa; POLPE 14-20 DAA 600 g a.c./ha): 23%
- PYR h.e. (Persicaria maculosa; POLPE 14-20 DAA 900 g a.c./ha): 28%
- PYR h.e. (Persicaria maculosa; POLPE 24-31 DAA 300 g a.c./ha): 17%
- PYR h.e. (Persicaria maculosa; POLPE 24-31 DAA 600 g a.c./ha): 33%
- PYR h.e. (Persicaria maculosa; POLPE 24-31 DAA 900 g a.c./ha): 32%
- herbicidal effect (h.e.) (Papaver rhoeas; 18-28 DAA): 3%
- herbicidal effect (h.e.) (Papaver rhoeas; 31-48 DAA): 3%
- herbicidal effect (h.e.) (Fallopia convolvulus; 7-14 DAA, # = 5, g a.c./ha: PYR 300, MES 100, PYR + MES 300 + 90): 26%
- herbicidal effect (h.e.) (Fallopia convolvulus; 13-14 DAA, # = 1, g a.c./ha: PYR 450, MES 144, PYR + MES 450 + 144): 23%
- herbicidal effect (h.e.) (Fallopia convolvulus; 18-28 DAA, # = 8, g a.c./ha: PYR 300, MES 100, PYR + MES 300 + 90): 32%
- herbicidal effect (h.e.) (Fallopia convolvulus; 31-48 DAA, # = 8, g a.c./ha: PYR 300, MES 100, PYR + MES 300 + 90): 27%
- PYR h.e. (Fallopia convolvulus; POLCO 14-20 DAA 300 g a.c./ha): 31%
- PYR h.e. (Fallopia convolvulus; POLCO 14-20 DAA 600 g a.c./ha): 34%
- PYR h.e. (Fallopia convolvulus; POLCO 14-20 DAA 900 g a.c./ha): 47%
- PYR h.e. (Fallopia convolvulus; POLCO 24-31 DAA 300 g a.c./ha): 29%
- PYR h.e. (Fallopia convolvulus; POLCO 24-31 DAA 600 g a.c./ha): 29%
- PYR h.e. (Fallopia convolvulus; POLCO 24-31 DAA 900 g a.c./ha): 43%
- PYR h.e. (Lamium purpureum; LAMPU 14-20 DAA 300 g a.c./ha): 28%
- PYR h.e. (Lamium purpureum; LAMPU 14-20 DAA 600 g a.c./ha): 60%
- PYR h.e. (Lamium purpureum; LAMPU 14-20 DAA 900 g a.c./ha): 65%
- PYR h.e. (Lamium purpureum; LAMPU 24-31 DAA 300 g a.c./ha): 14%
- PYR h.e. (Lamium purpureum; LAMPU 24-31 DAA 600 g a.c./ha): 46%
- PYR h.e. (Lamium purpureum; LAMPU 24-31 DAA 900 g a.c./ha): 67%
- herbicidal effect (h.e.) (Brassica napus; 7-14 DAA): 50%
- herbicidal effect (h.e.) (Brassica napus; 18-28 DAA): 11%
- herbicidal effect (h.e.) (Brassica napus; 31-48 DAA): 6%
- PYR h.e. (Setaria verticillata; SETVE 14-20 DAA 300 g a.c./ha): 29%
- PYR h.e. (Setaria verticillata; SETVE 14-20 DAA 600 g a.c./ha): 47%
- PYR h.e. (Setaria verticillata; SETVE 14-20 DAA 900 g a.c./ha): 75%
- PYR h.e. (Setaria verticillata; SETVE 24-31 DAA 300 g a.c./ha): 29%
- PYR h.e. (Setaria verticillata; SETVE 24-31 DAA 600 g a.c./ha): 33%
- PYR h.e. (Setaria verticillata; SETVE 24-31 DAA 900 g a.c./ha): 60%
- PYR h.e. (Viola arvensis; VIOAR 14-20 DAA 300 g a.c./ha): 31%
- PYR h.e. (Viola arvensis; VIOAR 14-20 DAA 600 g a.c./ha): 34%
- PYR h.e. (Viola arvensis; VIOAR 14-20 DAA 900 g a.c./ha): 50%
